From paper PMC9229263, “Pyrazolo[4,3-e]tetrazolo[1,5-b][1,2,4]triazine Sulfonamides as Novel Potential Anticancer Agents: Cytotoxic and Genotoxic Activities In Vitro” (Molecules, 2022)
Read-outs that look alike come from different tables or passages of the source.

Legend:
HCT 116 [1] = conditions: cited from earlier work
BxPC-3 [2] = tested on: BxPC-3; parameters: method as in PMID 20021699, PMID 24172061; conditions: cited from earlier work
HT-29 and DLD-1 = conditions: HT-29 and DLD-1, range; cited from earlier work
PC-3 [3] = assay: MTT assay, PC-3; assay type: cell-based; conditions: Homo sapiens; PC-3, MTT, 72 h; 95% confidence intervals in parentheses
Description: (§1) In order to characterize the effect of tested compounds on cell viability, the MTT test was used. MTT microplate assay enables evaluation of cell viability via measuring cell metabolic activity represented as an ability to incorporate and reduce yellow tetrazolium salt to the violet-blue formazan compounds via the activity of mitochondrial succinate dehydrogenase enzyme. The number of metabolically active cells positively correlates with the amount of reduced tetrazolium salt. The absorbance of formazan solution obtained after solubilizing formazan crystals in an organic solvent, e.g., DMSO, can be measured spectrophotometrically at 570 nm.
(§2) The suspension of 8–10 × 10^3 (adherent cells) and 8 × 10^4 (PBMCs) cells in 200 µL and 100 µL medium, respectively, was transferred to each well of 96-well microplate. Plates were incubated for 24 h in controlled conditions (5% CO2; 37 °C) to ensure cell growth. Subsequently, the medium was replaced, and the cells were exposed to tested compounds in a wide range of concentrations (0.1–6 µM). Before investigated compounds were diluted in a culture medium, they had been diluted in DMSO in the final concentration of <0.5% v/v, which were not toxic to the cells. The experimental design included blanks (wells without cells) as well as non-treated control cells. Following the 72 h incubation period, a volume of 20 µL of fresh tetrazolium salt solution (5 mg/mL in PBS) was added per well. In the case of adherent cancer cells, after 3 h of incubation (conditions as previously), the solutions were replaced by 100 µL of DMSO to dissolve formazan complexes. In contrast, the solutions in plates containing PBMCs were not removed and a 100 µL mixture of 50% DMF and 20% SDS was added to each well for the next 24 h. Absorbance was measured via spectrophotometer (microplate reader Power Wave XS BioTek Instruments, Inc., Winooski, VT, USA) at 570 nm. […]

BxPC-3 [4] = assay: MTT assay, BxPC-3; assay type: cell-based; conditions: Homo sapiens; BxPC-3, MTT, 72 h; 95% confidence intervals in parentheses
Description: as §1, §2

[5] = tested on: HeLa, HCT 116, PC-3, BxPC-3, Hs27, PBMCs; assay: MTT assay, summary over all tested cells; assay type: cell-based; conditions: Homo sapiens; HCT 116, HeLa, PC-3 and BxPC-3, MTT; read-out: IC50 range in cancer cell lines
Description: as §1
(§3) The suspension of 8–10 × 10^3 (adherent cells) and 8 × 10^4 (PBMCs) cells in 200 µL and 100 µL medium, respectively, was transferred to each well of 96-well microplate. Plates were incubated for 24 h in controlled conditions (5% CO2; 37 °C) to ensure cell growth. Subsequently, the medium was replaced, and the cells were exposed to tested compounds in a wide range of concentrations (0.1–6 µM). Before investigated compounds were diluted in a culture medium, they had been diluted in DMSO in the final concentration of <0.5% v/v, which were not toxic to the cells. […] Absorbance was measured via spectrophotometer (microplate reader Power Wave XS BioTek Instruments, Inc., Winooski, VT, USA) at 570 nm. […]

PC-3 [6] = assay: Comet assay, alkaline version (pH > 13), PC-3; assay type: cell-based, human; conditions: PC-3, 24 h, range over 0.5, 1 and 2 × IC50
Description: (§4) The alkaline version (pH > 13), as well as the neutral version (pH 9.0) of the comet assay, was performed on cancer cell lines according to the procedures described by Singh et al. with modifications. 12-well plates were seeded at a density of 1.2–1.5 × 10^5 cells per well. […] In addition, negative and positive controls (cells treated only with DMSO at <0.5% and with bleomycin at 20 µM, respectively) were included.
(§5) Following a 24 h incubation (5% CO2; 37 °C), the cells were trypsinized and transferred to Eppendorf tubes and centrifuged (10 min, 1400 rpm, 4 °C). The obtained pellet was resuspended in 100 µL of fresh PBS, mixed with 0.75% LMP agarose dissolved in PBS, and embedded onto microscope slides, previously precoated with 0.5% NMP agarose. The Trypan Blue dye exclusion test was used to determine the number of viable cells present in a cell suspension. […] The slides after agarose solidification were placed in a fresh, cold lysis buffer (pH 10, 1% Triton X-100, 2.5 M NaCl, 100 mM EDTA, 10 mM Tris) for 1 h (4 °C, in dark), which subsequently was replaced by electrophoretic solution (1 mM EDTA, 300 mM NaOH, pH > 13) for another 40 min. Afterward, electrophoresis was performed (25 min, 0.73 V/cm, 300 mA, 4 °C, in dark). Subsequently, the slides were neutralized with 0.4 M Tris, pH 7.5 (20 min, 4 °C, in dark) and washed 3× in distilled water. Eventually, slides were drained, stained with DAPI (1 μg/mL) for at least 1 h (4 °C), and analyzed with fluorescence microscope (Olympus, Tokyo, Japan).
(§6) A total number of 50 randomly selected images were analyzed in the commercially available software CaspLab. Two parallel experiments with aliquots of the same sample of cells were performed for a total of 100 cells. From the available parameters, the percentage of DNA in comet tail was selected as the most appropriate as being negatively associated with the level of DNA cross-links, as well as positively correlated with alkali-labile sites and the amount of DNA single-strand breaks (SSBs) and double-strand breaks (DSBs) (alkaline version of the comet assay). […]

PBMCs = assay: MTT assay, PBMCs (normal); assay type: cell-based; conditions: Homo sapiens, PBMC, PBMCs normal cells, 72 h, 95% confidence intervals in parentheses
Description: Human PBMCs were isolated from the leucocyte buffy coat obtained from the blood of healthy and nonsmoking volunteers (aged 18–65). Leukocyte buffy coats were collected from Blood Bank in Lodz, Poland. The use of the leukocyte buffy coat in the investigation of the effect of novel tricyclic pyrazolo[4,3-e][1,2,4]triazine derivatives on human PBMCs was approved by the Bioethics Committee for Scientific Investigation, University of Lodz (agreement no. 8/KBBN-UŁ/I//2019). Isolation of PBMCs was performed by density gradient of Lymphosep (25 min, 1400 rpm, RT). PBMCs were cultured in RPMI-1640 medium, supplemented with 1% (v/v) penicillin–streptomycin solution, 1.5% PHA and 10% (v/v) FBS.
as §1, §3

[7] = tested on: HT-29 and DLD-1 cancer cells; parameters: method as in PMID 26089833; conditions: mice challenged with HT-29 and DLD-1 cancer cells, two weeks of treatment; cited from earlier work
tumor development = tested on: tumor development; parameters: method as in PMID 31371419; conditions: zebrafish embryo xenograft model; cited from earlier work
Hs27 = assay: MTT assay, Hs27 fibroblasts (normal); assay type: cell-based; conditions: Homo sapiens, 72 h, 95% confidence intervals in parentheses
Description: as §1, §2

HCT 116 [8] = assay: MTT assay, HCT 116; assay type: cell-based; conditions: Homo sapiens; HCT 116, MTT, 72 h; 95% confidence intervals in parentheses
Description: as §1, §2

HeLa [9] = assay: MTT assay, HeLa; assay type: cell-based; conditions: Homo sapiens, 72 h, 95% confidence intervals in parentheses
Description: as §1, §2

HCT 116 [10] = assay: Immunocytochemical detection of γ-H2AX; assay type: cell-based, human; conditions: HCT 116, 24 h, highest concentration used (2 × IC50)
Description: Immunocytochemical detection of the phosphorylated form of the histone protein component H2AX (γ-H2AX) is a well-known approach to estimate DNA DSB levels in both in vitro [47, 53, 66] and in vivo [67, 68] studies. HCT 116 cells were grown on coverslips in 12-well plates at a density of 1.2 × 10^5 per well for 24 h (5% CO2; 37 °C). Subsequently, the cells were exposed to investigated compounds in two different concentrations (IC50 and 2 × IC50 values with respect to MTT results), by replacing the medium with an appropriate compound concentration. Negative control (cells treated only with DMSO at <0.5%) was also included.
The cells were fixed with 4% paraformaldehyde (10 min), washed twice with PBS, and permeabilized with 0.5% (v/v) Triton X-100/PBS solution (10 min). Afterward, the cells were incubated with a blocking solution containing 1.5% goat serum, and 0.1% Triton in PBS for 10 min and incubated with the primary antibody, anti-gamma-H2AX (phospho-Ser139) (Abcam, Cambridge, UK; 1:100) for 1 h. […]
The slides were examined using a fluorescence microscope (Olympus) at 40× magnification. […] A total number of 150 randomly selected cells from digital images per sample were measured. The data were exported and analyzed in GraphPad Prism 8.0 software system (GraphPad Prism Software Inc., San Diego, CA, USA).

HCT 116 [11] = assay: Comet assay, alkaline version (pH > 13), HCT 116; assay type: cell-based, human; conditions: HCT 116, 24 h; for Alkaline Version, median percentage of DNA in comet tail: compound at 2 × IC50, interquartile range in parentheses
Description: as §4, §5, §6

HeLa [12] = tested on: HeLa; parameters: method as in doi:10.26650/IstanbulJPharm.2020.0039, PMID 34200051; conditions: cited from earlier work
PC-3 [13] = conditions: cited from earlier work

| IC50 (PC-3 [3]) | IC50 (BxPC-3 [4]) | IC50 (HCT 116 [8]) | IC50 (HeLa [9]) | SMILES | IC50 (HCT 116 [1]) | IC50 (HT-29 and DLD-1) | % of DNA in comet tail, alkaline comet assay (PC-3 [6]) | IC50 (PBMCs) | IC50 (Hs27) | IC50 (PC-3 [13]) | other results |
| --- | --- | --- | --- | --- | --- | --- | --- | --- | --- | --- | --- |
|  |  |  |  | O=c1[nH]cc(F)c(=O)[nH]1 [5-fluorouracil] | 3.2 µM |  |  |  |  |  | IC50 (BxPC-3 [2]): 96.1 µM |
|  |  |  |  | Cc1nn(-c2ccc(S(=O)(=O)NC(CO)CC(C)C)cc2)c2nn3nnnc3nc12 (centres unmarked) [MM124, reference compound] |  | 160 to 1540 nM |  |  |  |  |  |
| 360 nM | 260 nM | 600 nM | 900 nM | COC(=O)C1CC(O)CN1S(=O)(=O)c1ccc(-n2nc(C)c3nc4nnnn4nc32)cc1 (centres unmarked) [MM129] |  | 3100 to 3900 nM | 7.4–21.8% | 1110 nM | 1150 nM |  | IC50 [5]: 130 to 900 nM; tumor mass and volume [7]: significant reduction in tumor mass and volume; tumor development (tumor development): inhibition of tumor development |
| 220 nM | 170 nM | 440 nM | 590 nM | Cc1nn(-c2ccc(S(=O)(=O)N[C@@H](C)CO)cc2)c2nn3nnnc3nc12 [MM130] |  |  | 7.4–21.8% | 770 nM | 810 nM |  | melting point: 197 to 202 °C; median of the number of γ-H2AX foci per nucleus (HCT 116 [10]): 12 foci per nucleus; Alkaline Version, median percentage of DNA in comet tail (HCT 116 [11]): 25.6% |
| 170 nM | 130 nM | 390 nM | 410 nM | Cc1nn(-c2ccc(S(=O)(=O)N[C@H](C)CO)cc2)c2nn3nnnc3nc12 [MM131] |  | 3100 to 3900 nM | 19.5–40.3% | 620 nM | 620 nM |  | IC50 [5]: 130 to 900 nM; median of the number of γ-H2AX foci per nucleus (HCT 116 [10]): 15 foci per nucleus; Alkaline Version, median percentage of DNA in comet tail (HCT 116 [11]): 38.8%; % of DNA in comet tail, alkaline comet assay (HCT 116 [11]; range over 0.5, 1 and 2 × IC50): 8–38.8% |
|  |  |  |  | Cc1nn(-c2ccc(S(=O)(=O)N3CCN(C)CC3)cc2)c2nn3nnnc3nc12 [MM137, reference compound] |  | 160 to 1540 nM |  |  |  |  |  |
|  |  |  |  | N.N.[Cl][Pt][Cl] [cisplatin] | 9 µM |  |  |  |  | 9 µM | IC50 (HeLa [12]): 12.3 µM |
|  |  |  |  | CCc1c2c(nc3ccc(OC(=O)N4CCC(N5CCCCC5)CC4)cc13)-c1cc3c(c(=O)n1C2)COC(=O)[C@]3(O)CC [irinotecan] | 2.6 µM |  |  |  |  | 2.1 µM |  |
|  |  |  |  | O=C1[O][Pt]2([NH][C@@H]3CCCC[C@H]3[NH]2)[O]C1=O [oxaliplatin] | 72 µM |  |  |  |  | 100 µM |  |
